We go through 34 molecules from patent US10125118B2, “Heteroaryl compounds and their use as therapeutic drugs” (Dong-A Socio Holdings Co., Ltd., priority 2015, dated 2018).

Where only a bound is given, the exact number is not on record here.

This assay addresses human c-MER catalytic domain (Homo sapiens (Human), UniProt Q12866). As to the kind of experiment: LanthaScreen TR-FRET kinase assay, c-MER. The settings on record: read-out: Mer TK inhibition (IC50); Biochemical IC50, TR-FRET, 10 uM ATP. (TR-FRET usually uses a lanthanide donor and a delayed reading to cut background.)

human c-MER catalytic domain, sequence (Q12866 587-858): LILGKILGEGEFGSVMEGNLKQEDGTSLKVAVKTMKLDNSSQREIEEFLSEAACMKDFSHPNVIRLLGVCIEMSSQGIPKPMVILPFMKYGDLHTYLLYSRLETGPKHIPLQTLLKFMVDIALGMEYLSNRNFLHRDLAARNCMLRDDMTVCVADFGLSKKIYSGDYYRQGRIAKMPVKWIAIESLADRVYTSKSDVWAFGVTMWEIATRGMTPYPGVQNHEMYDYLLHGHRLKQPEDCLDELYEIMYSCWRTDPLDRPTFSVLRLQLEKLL

As to `C[C@H](CNC(=O)c1cc(-c2cnn(C)c2)cnc1N)OCc1ccccc1` [Example 95, (R)-2-amino-N-(2-(benzyloxy)propyl)-5-(1-methyl-1H-pyrazol-4-yl)nicotinamide], the IC50 was > 1000 nM.
The value for `CN1CCN(c2ccc(Nc3ccc(C(=O)N[C@H]4CCC[C@@H]4OCc4ccccc4)c(N)n3)cc2)CC1` [Example 458, 2-amino-N-((1S,2S)-2-(benzyloxy)cyclopentyl)-6-((4-(4-methylpiperazin-1-yl)phenyl)amino)nicotinamide] was > 1000 nM; that for `C[C@H](N)C(=O)Nc1cccc(CO[C@H]2CCC[C@@H]2NC(=O)c2cc(-c3cnn(C)c3)cnc2N)c1` [Example 58, 2-amino-N-((1S,2S)-2-((3-((S)-2-aminopropanamido)benzyl)oxy)-cyclopentyl)-5-(1-methyl-1H-pyrazol-4-yl)nicotinamide] was > 1000 nM.
The value for `Cn1cc(-c2cnc(N)c(C(=O)N[C@H]3CCC[C@@H]3O)c2)cn1` [Example 69, 2-amino-N-((1S,2S)-2-hydroxycyclopentyl)-5-(1-methyl-1H-pyrazol-4-yl)nicotinamide] was > 1000 nM; that for `CC(=O)N[C@@H](C)C(=O)Nc1cccc(CO[C@H]2CCC[C@@H]2NC(=O)c2cc(-c3cnn(C)c3)cnc2N)c1` [Example 59, N-((1S,2S)-2-((3-((S)-2-acetamidopropanamido)benzyl)oxy)-cyclopentyl)-2-amino-5-(1-methyl-1H-pyrazol-4-yl)nicotinamide] was > 1000 nM; that for `CC(C)[C@H](COCc1ccccc1)NC(=O)c1cc(-c2cnn(C)c2)cnc1N` [Example 110, (R)-2-amino-N-(1-(benzyloxy)-3-methylbutan-2-yl)-5-(1-methyl-1H-pyrazol-4-yl)nicotinamide] was > 1000 nM.
In the case of `C[C@H](COCc1ccc(Cl)c(Cl)c1)NC(=O)c1cc(-c2cnn(C)c2)cnc1N` [Example 104, (R)-2-amino-N-(1-((3,4-dichlorobenzyl)oxy)propan-2-yl)-5-(1-methyl-1H-pyrazol-4-yl)nicotinamide] it was > 1000 nM.
With `Cn1cc(-c2cnc(N)c(C(=O)N[C@H]3CCC[C@@H]3OCc3cccc(-c4cccc(O)c4)c3)c2)cn1` [Example 169, 2-amino-N-((1S,2S)-2-((3′-hydroxy-[1,1′-biphenyl]-3-yl)-methoxy)cyclopentyl)-5-(1-methyl-1H-pyrazol-4-yl)nicotinamide], the half-inhibitory concentration (IC50) is > 1000 nM.
Turning to `C[C@@H](COCc1ccccc1)NC(=O)c1cc(-c2cnn(C)c2)cnc1N` [Example 97, (S)-2-amino-N-(1-(benzyloxy)propan-2-yl)-5-(1-methyl-1H-pyrazol-4-yl)nicotinamide], the 50% inhibitory concentration (IC50) is > 1000 nM.
In the case of `Cn1cc(-c2cnc(N)c(C(=O)N[C@H](COCc3ccccc3)c3ccccc3)c2)cn1` [Example 115, (S)-2-amino-N-(2-(benzyloxy)-1-phenylethyl)-5-(1-methyl-1H-pyrazol-4-yl)nicotinamide] it was > 1000 nM; in that of `COc1ccc(CO[C@@H]2CCC[C@H]2NC(=O)c2cc(-c3cnn(C)c3)cnc2N)cc1` [Example 36, 2-amino-N-((1R,2R)-2-((4-methoxybenzyl)oxy)cyclopentyl)-5-(1-methyl-1H-pyrazol-4-yl)nicotinamide], > 1000 nM; in that of `CNC(=O)[C@@H](NC(=O)c1cc(-c2cnn(C)c2)cnc1N)[C@@H](C)OCc1ccccc1` [Example 122, 2-amino-N-((2S,3R)-3-(benzyloxy)-1-(methylamino)-1-oxobutan-2-yl)-5-(1-methyl-1H-pyrazol-4-yl)nicotinamide], > 1000 nM.
In the case of `CC(C)C[C@H](COCc1ccccc1)NC(=O)c1cc(-c2cnn(C)c2)cnc1N` [Example 112, (R)-2-amino-N-(1-(benzyloxy)-4-methylpentan-2-yl)-5-(1-methyl-1H-pyrazol-4-yl)nicotinamide] it was > 1000 nM; in that of `Cn1cc(-c2cnc(N)c(C(=O)N[C@H]3CCC4(OCCO4)[C@@H]3OCc3ccccc3)c2)cn1` [Example 73, 2-amino-N-((6R,7S)-6-(benzyloxy)-1,4-dioxaspiro[4.4]nonan-7-yl)-5-(1-methyl-1H-pyrazol-4-yl)nicotinamide], > 1000 nM.
The value for `Cn1cc(-c2cnc(N)c(C(=O)NC(C)(C)COCc3ccccc3)c2)cn1` [Example 99, 2-amino-N-(1-(benzyloxy)-2-methylpropan-2-yl)-5-(1-methyl-1H-pyrazol-4-yl)nicotinamide] was > 1000 nM.
Turning to `COc1cccc(CO[C@@H](C)CNC(=O)c2cc(-c3cnn(C)c3)cnc2N)c1` [Example 107, (S)-2-amino-N-(2-((3-methoxybenzyl)oxy)propyl)-5-(1-methyl-1H-pyrazol-4-yl)nicotinamide], the half-inhibitory concentration (IC50) is > 1000 nM.
The value for `CN(Cc1ccccc1)[C@H]1CCC[C@@H]1NC(=O)c1cc(-c2cnn(C)c2)cnc1N` (relative stereo) [Example 76, 2-amino-N-(trans-2-(benzyl(methyl)amino)cyclopentyl)-5-(1-methyl-1H-pyrazol-4-yl)nicotinamide] was > 1000 nM; that for `CC[C@H](COCc1ccccc1)NC(=O)c1cc(-c2cnn(C)c2)cnc1N` [Example 108, (R)-2-amino-N-(1-(benzyloxy)butan-2-yl)-5-(1-methyl-1H-pyrazol-4-yl)nicotinamide] was > 1000 nM.
The value for `Cc1ccc(CO[C@H]2CCC[C@@H]2NC(=O)c2cc(-c3ccc(C(=O)N4CCC(N5CCCC5)CC4)c(C)c3)cnc2N)cc1C` [Example 330] was < 10 nM; that for `Cc1ccc(COC[C@@H](C)NC(=O)c2cc(-c3cnn(C)c3)cnc2N)cc1C` [Example 100, (R)-2-amino-N-(1-((3,4-dimethylbenzyl)oxy)propan-2-yl)-5-(1-methyl-1H-pyrazol-4-yl)nicotinamide] was > 1000 nM.
In the case of `N#Cc1ccc(-c2cnc(N)c(C(=O)N[C@H]3CCC[C@@H]3OCc3ccccc3)c2)cc1` [Example 264, 2-amino-N-((1S,2S)-2-(benzyloxy)cyclopentyl)-5-(4-cyanophenyl)-nicotinamide] it was > 1000 nM; in that of `Cc1c(N)cccc1-c1ccc(CO[C@H]2CCC[C@@H]2NC(=O)c2cc(-c3cnn(C)c3)cnc2N)cc1` [Example 139, 2-amino-N-((1S,2S)-2-((3′-amino-2′-methyl-[1,1′-biphenyl]-4-yl)methoxy)cyclopentyl)-5-(1-methyl-1H-pyrazol-4-yl)nicotinamide], > 1000 nM; in that of `C[C@@H](OCc1ccccc1)[C@H](NC(=O)c1cc(-c2cnn(C)c2)cnc1N)C(=O)NC1CCCC1` [Example 124, 2-amino-N-((2S,3R)-3-(benzyloxy)-1-(cyclopentylamino)-1-oxobutan-2-yl)-5-(1-methyl-1H-pyrazol-4-yl)nicotinamide], > 1000 nM.
In the case of `CN1CCN(C(C)(C)c2ccc(-c3ccc(CO[C@H]4CCC[C@@H]4NC(=O)c4cccnc4N)cc3)cc2)CC1` [Example 167, 2-amino-N-((1S,2S)-2-((4′-(2-(4-methylpiperazin-1-yl)propan-2-yl)-[1,1′-biphenyl]-4-yl)methoxy)cyclopentyl)nicotinamide], the IC50 is < 10 nM.
In the case of `Cn1cc(-c2cnc(N)c(C(=O)N[C@H]3CCC[C@@H]3OCc3ccc(-c4cccc(CN)c4)cc3)c2)cn1` [Example 143] it was > 1000 nM; in that of `Cn1cc(-c2cnc(N)c(C(=O)N[C@@H](CO)C(=O)OCc3ccccc3)c2)cn1` [Example 128, benzyl (2-amino-5-(1-methyl-1H-pyrazol-4-yl)nicotinoyl)-L-serinate], > 1000 nM; in that of `Cn1cc(-c2cnc(N)c(C(=O)N[C@H]3CCC[C@@H]3COc3cccc(C(=O)N4CCCCC4)c3)c2)cn1` [Example 83, 2-amino-5-(1-methyl-1H-pyrazol-4-yl)-N-((1S,2S)-2-((3-(piperidine-1-carbonyl)phenoxy)methyl)cyclopentyl)nicotinamide], > 1000 nM.
With `C[C@H](COCC1CCC1)NC(=O)c1cc(-c2cnn(C)c2)cnc1N` [Example 119, (R)-2-amino-N-(1-(cyclobutylmethoxy)propan-2-yl)-5-(1-methyl-1H-pyrazol-4-yl)nicotinamide], the IC50 is > 1000 nM.
The value for `COC(=O)[C@@H](NC(=O)c1cc(-c2cnn(C)c2)cnc1N)[C@@H](C)OCc1ccccc1` [Example 121, methyl N-(2-amino-5-(1-methyl-1H-pyrazol-4-yl)nicotinoyl)-O-benzyl-L-threoninate] was > 1000 nM.
The value for `CN1CCN(Cc2ccc(-c3ccc(CO[C@H]4CCC[C@@H]4NC(=O)c4cc(-c5cnn(C)c5)cnc4N)cc3)nc2)CC1` [Example 204, 2-amino-5-(1-methyl-1H-pyrazol-4-yl)-N-((1S,2S)-2-((4-(5-((4-methylpiperazin-1-yl)methyl)pyridin-2-yl)benzyl)oxy)cyclopentyl)nicotinamide] was < 10 nM.
The value for `COC(=O)CNC(=O)c1cccc(CO[C@H]2CCC[C@@H]2NC(=O)c2cc(-c3cnn(C)c3)cnc2N)c1` [Example 55, methyl (3-((((1S,2S)-2-(2-amino-5-(1-methyl-1H-pyrazol-4-yl)nicotinamido)cyclopentyl)oxy)methyl)benzoyl)glycinate] was > 1000 nM; that for `Cn1cc(-c2cnc(N)c(C(=O)N[C@@H](COCc3ccccc3)c3ccccc3)c2)cn1` [Example 116, (R)-2-amino-N-(2-(benzyloxy)-1-phenylethyl)-5-(1-methyl-1H-pyrazol-4-yl)nicotinamide] was > 1000 nM.
With `CN(C)CCCc1ccc(CO[C@H]2CCC[C@@H]2NC(=O)c2cc(-c3cnn(C)c3)cnc2N)cc1` [Example 244, 2-amino-N-((1S,2S)-2-((4-(3-(dimethylamino)propyl)benzyl)oxy)-cyclopentyl)-5-(1-methyl-1H-pyrazol-4-yl)nicotinamide], the IC50 was > 1000 nM.
In the case of `Cn1cc(-c2cnc(N)c(C(=O)N[C@H]3CCC[C@@H]3OCc3cc(F)c(F)cc3F)c2)cn1` (relative stereo) [Example 50, 2-amino-5-(1-methyl-1H-pyrazol-4-yl)-N-(trans-2-((2,4,5-trifluorobenzyl)oxy)cyclopentyl)nicotinamide] it was > 1000 nM.

For orientation: IC50 means the point on the concentration scale where inhibition reaches its midpoint.
